# Data as given in patent US10519111B2, “UV absorbing compounds, compositions comprising same and uses thereof” (CORAL SUNSCREEN PTY LTD, priority 2013, dated 2019).
# Values joined by “and” are separate entries in the source; they are usually repeats but may differ in a detail not shown here. Equal values may be shown once.
# Assay: UV absorption properties (λmax, molar extinction coefficient ε, efficiency E 1%, 1 cm)
# Assay type: physicochemical
# [1] = values in order of the λmax values
# [2] = Table 7, values in order of the λmax values
SMILES,UV λmax,ε (molar extinction coefficient) [1],also measured
"CC(C)CN1C=C(C(=O)/C=C/C=Cc2ccccc2)C(C)(C)CC1 [Compound 35, (2E, 4E/Z)-1-(1-isobutyl-4,4-dimethyl-1,4,5,6-tetrahydropyridin-3-yl)-5-phenylpenta-2,4-dien-1-one]",318 nm and 370 nm,14800 M⁻¹ cm⁻¹ and 13200 M⁻¹ cm⁻¹,
COc1ccc(N2C=CC(C)(C)CC2)cc1 [drawing 126],,,"λmax (Table 8a, N-phenyl compounds): 275 nm"
"COc1ccc(N2C=CC(C)(C)CC2)cc1 [Compound 51, 1-(4-methoxyphenyl)-4,4-dimethyl-1,2,3,4-tetrahydropyridine]",278 nm,22550 M⁻¹ cm⁻¹,
CC(C)CN1C=C(C(=O)C(C#N)=C(c2ccccc2)c2ccccc2)C(C)(C)CC1 [Compound 39],297 nm and 317 nm,15750 M⁻¹ cm⁻¹ and 16150 M⁻¹ cm⁻¹,
"Cc1cc(N2C=CC(C)(C)C=C2)n(C)n1 [Compound 152, 1-(1,3-dimethyl-1H-pyrazol-5-yl)-4,4-dimethyl-1,4-dihydropyridine]",253 nm,11371 M⁻¹ cm⁻¹,
C=C/C=C/CC(=O)C1=CN(CC(C)C)CCC1(C)C [drawing 109],,,"λmax (Table 7, unsaturated compounds): 311 nm; E (1%, 1 cm) [2]: 1053; ε [2]: 27500 M⁻¹ cm⁻¹"
CC(=O)CC1=CC(C)(C)CCN1CC(C)C,,,"E (1%, 1 cm) (Table 12): 675; ε (Table 12): 16000 M⁻¹ cm⁻¹; λmax (Table 12, 2-substituted compounds): 314 nm"
"CC1(C)CCN(c2ccccc2)C=C1C(=O)c1ccc(Br)cc1 [Compound 49, (4-bromophenyl)(1-(phenyl)-4,4-dimethyl-1,4,5,6-tetrahydropyridin-3-yl)methanone]",338 nm,23300 M⁻¹ cm⁻¹,
CC(C)CN1C=C(C(=O)CCC(=O)O)C(C)(C)CC1 [drawing 171],,,"λmax (Table 13A, miscellaneous compounds): 308 nm"
"Cc1ccc(N2C=C(C(=O)CCCCCCCCC(=O)C3=CN(c4ccc(C)cc4)CCC3(C)C)C(C)(C)CC2)cc1 [Compound 172, 1,10-bis(4,4-dimethyl-1-(p-tolyl)-1,4,5,6-tetrahydropyridin-3-yl)decane-1,10-dione]",328 nm,52737 M⁻¹ cm⁻¹,ε value (unit inferred): > 52000 M⁻¹ cm⁻¹
"Cc1nn(C)c(N2C=CC(C)(C)C=C2)c1C(=O)C(F)(F)F [Compound 200, 1-(5-(4,4-dimethylpyridin-1(4H)-yl)-1,3-dimethyl-1 H-pyrazol-4-yl)-2,2,2-trifluoroethanone]",253 nm,10016 M⁻¹ cm⁻¹,
CC1(C)C=CN(c2ccccc2)CC1 [drawing 121],,,"E (1%, 1 cm) (Table 8a): 1205; ε (Table 8a): 22550 M⁻¹ cm⁻¹; λmax (Table 8a, N-phenyl compounds): 278 nm"
"CC(C)CN1C=C(C(=O)c2cc(C(=O)C3=CN(CC(C)C)CCC3(C)C)cc(C(=O)C3=CN(CC(C)C)CCC3(C)C)c2)C(C)(C)CC1 [Compound 22, benzene-1,3,5-triyltris ((1-isobutyl-4,4-dimethyl-1,4,5,6-tetrahydropyridin-3-yl)methanone)]",316 nm,33000 M⁻¹ cm⁻¹,
"CCC(=O)C1=C(c2ccccc2)N(CC(C)C)CCC1(C)C [Compound 58, 1-(1-isobutyl-4,4-dimethyl-2-phenyl-1,4,5,6-tetrahydropyridin-3-yl)propan-1-one]",338 nm,8000 M⁻¹ cm⁻¹,
CC1(C)C=CN(c2ccccc2)C=C1 [drawing 125],,,"E (1%, 1 cm) (Table 8a): 866; ε (Table 8a): 16000 M⁻¹ cm⁻¹; λmax (Table 8a, N-phenyl compounds): 285 nm"
"COc1ccc(N2C=C(C(=O)Cc3ccccc3)C(C)(C)CC2)cc1 [Compound 174, 1-(1-(4-methoxyphenyl)-4,4-dimethyl-1,4,5,6-tetrahydropyridin-3-yl)-2-phenylethanone]",334 nm,33786 M⁻¹ cm⁻¹,
"CC(C)CN1C=C(C(=O)C(c2ccccc2)c2ccccc2)C(C)(C)CC1 [Compound 71, 1-(1-isobutyl-4,4-dimethyl-1,4,5,6-tetrahydropyridin-3-yl)-2,2-diphenylethanone]",314 nm,26000 M⁻¹ cm⁻¹,
"COc1ccc(C(=O)C2=CN(CC(C)C)CCC2(C)C)c(OC)c1 [Compound 24, 2,4-dimethoxyphenyl(1-isobutyl-4,4-dimethyl-1,4,5,6-tetrahydropyridin-3-yl)methanone]",313 nm,9500 M⁻¹ cm⁻¹,

# More lines, main results first:
UV λmax,ε (molar extinction coefficient) [1],SMILES,also measured
314 nm,51743 M⁻¹ cm⁻¹,"Cc1ccc(N2C=C(C(=O)Nc3ccc(C)c(NC(=O)C4=CN(C(C)(C)C)CCC4(C)C)c3)C(C)(C)CC2)cc1 [Compound 190, 1-(tert-butyl)-N-(5-(4,4-dimethyl-1-(p-tolyl)-1,4,5,6-tetrahydropyridine-3-carboxamido)-2-methylphenyl)-4,4-dimethyl-1,4,5,6-tetrahydropyridine-3-carboxamide]",
320 nm,18000 M⁻¹ cm⁻¹,"CC(C)CN1C=C(C(=O)c2ccc(-c3ccccc3)cc2)C(C)(C)CC1 [Compound 19, [1,1′-biphenyl]-4-yl(1-isobutyl-4,4-dimethyl-1,4,5,6-tetrahydropyridin-3-yl)methanone]",
321 nm,23000 M⁻¹ cm⁻¹,"CCC(=O)C1=CN(c2ccccc2)CCC1(C)C [Compound 47, 1-(4,4-dimethyl-1-phenyl-1,4,5,6-tetrahydropyridin-3-yl)propan-1-one]",
304 nm,34588 M⁻¹ cm⁻¹,"Cc1ccc(S(=O)(=O)NC(=O)C2=CN(C(C)(C)C)CCC2(C)C)cc1 [Compound 186, 1-(tert-butyl)-4,4-dimethyl-N-tosyl-1,4,5,6-tetrahydropyridine-3-carboxamide]",
322 nm,71962 M⁻¹ cm⁻¹,"CC1(C)CCN(C(C)(C)C)C=C1C(=O)Nc1ccc(NC(=O)C2=CN(C(C)(C)C)CCC2(C)C)cc1 [Compound 187, N,N′-(1,4-phenylene)bis(1-(tert-butyl)-4,4-dimethyl-1,4,5,6-tetrahydropyridine-3-carboxamide)]",
308 nm,,"Cc1ccc(NC(=O)C2=CN(C(C)(C)C)CCC2(C)C)cc1NC(=O)C1=CN(C(C)(C)C)CCC1(C)C [Compound 184, N,N′-(4-methyl-1,3-phenylene)bis(1-(tert-butyl)-4,4-dimethyl-1,4,5,6-tetrahydropyridine-3-carboxamide)]",
364 nm,16150 M⁻¹ cm⁻¹,"COc1ccc(/C=C/C(=O)C2=CN(CC(C)C)CCC2(C)C)cc1 [Compound 34, (E)-1-(1-isobutyl-4,4-dimethyl-1,4,5,6-tetrahydropyridin-3-yl)-3-(4-methoxyphenyl)prop-2-en-1-one]",
396 nm and 309 nm,,"CC1(C)CCN(C(C)(C)C)C=C1C(=O)CC(=O)c1ccccc1 [Compound 170, 1-(1-(tert-butyl)-4,4-dimethyl-1,4,5,6-tetrahydropyridin-3-yl)-3-phenylpropane-1,3-dione]",
337 nm,42723 M⁻¹ cm⁻¹,"CC1(C)CCN(c2ccc(C(C)(C)C)cc2)C=C1C(=O)C(F)(F)F [Compound 194, 1-(1-(4-(tert-butyl)phenyl)-4,4-dimethyl-1,4,5,6-tetrahydropyridin-3-yl)-2,2,2-trifluoroethanone]",
310 nm,64589 M⁻¹ cm⁻¹,"CC1(C)CCN(C(C)(C)C)C=C1C(=O)Nc1ccc(Cc2ccc(NC(=O)C3=CN(C(C)(C)C)CCC3(C)C)cc2)cc1 [Compound 185, N,N′-(methylenebis(4,1-phenylene))bis(1-(tert-butyl)-4,4-dimethyl-1,4,5,6-tetrahydropyridine-3-carboxamide)]",
313 nm,55779 M⁻¹ cm⁻¹,"CC1(C)CCN(C(C)(C)C)C=C1C(=O)Nc1cccc(NC(=O)C2=CN(C(C)(C)C)CCC2(C)C)c1 [Compound 188, N,N′-(1,3-phenylene)bis(1-(tert-butyl)-4,4-dimethyl-1,4,5,6-tetrahydropyridine-3-carboxamide)]",
337 nm,43513 M⁻¹ cm⁻¹,"Cc1ccc(N2C=C(C(=O)C(F)(F)F)C(C)(C)CC2)cc1 [Compound 197, 1-(4,4-dimethyl-1-(p-tolyl)-1,4,5,6-tetrahydropyridin-3-yl)-2,2,2-trifluoroethanone]",
328 nm,23500 M⁻¹ cm⁻¹,"CCC(=O)C1=CN(c2ccc(OC)cc2)CCC1(C)C [Compound 52, 1-(1-(4-methoxyphenyl)-4,4-dimethyl-1,4,5,6-tetrahydropyridin-3-yl)propan-1-one]",
323 nm,33948 M⁻¹ cm⁻¹,"Cc1ccc(N2C=C(C(=O)Nc3ccccc3)C(C)(C)CC2)cc1 [Compound 192, 4,4-dimethyl-N-phenyl-1-(p-tolyl)-1,4,5,6-tetrahydropyridine-3-carboxamide]",
289 nm,31072 M⁻¹ cm⁻¹,"CC1(C)CCN(C(C)(C)C)C=C1C(=O)NCCCCCCNC(=O)C1=CN(C(C)(C)C)CCC1(C)C [Compound 181, N,N′-(hexane-1,6-diyl)bis(1-(tert-butyl)-4,4-dimethyl-1,4,5,6-tetrahydropyridine-3-carboxamide)]",
